Tests used:
[1] = test system: left ventricular pressure max dP/dt; test: cardiotonic activity (max dP/dt) in anesthetized dogs; type: in vivo; details: injected into left coronary artery
Procedure: The experiment on cardiotonic activity of the compounds of the present invention was conducted as follows: Dogs were anesthetized with sodium pentobarbital and heparin was administered intraveneously. The left venticular pressure and its max dP/dt were measured. Test compounds were injected at a volume of 10 to 30 μl into a catheter inserted into left coronary artery. The effects of test compounds on max dP/dt were shown as ED30, a dose required to increase max dP/dt by 30% of the effects of 0.1 μg is isoproterenol.

5-lipoxygenase = 5-lipoxygenase inhibition (method of Yoshimoto et al.); type: biochemical; details: read-out: 50% inhibitory concentration on 5-lipoxygenase
Excerpt: According to the pharmacological experiment conducted by the method of Yoshimoto et al. which is described in Biochem. Biophys. Res. Commum., vol. 107, p.

mice = test: acute toxicity in male mice; type: in vivo; details: observed for 5 days
Excerpt: The acute toxicity of the compounds of the present invention was studied in 5 male mice weighing 30 to 45 g.

central nervous system = test: sedative activity by electroencephalograms in rabbits; type: in vivo; details: from the intraperitoneal dose of 3 mg/kg

Cc1[nH]c2ccc(O)cc2c1C(=O)NC1CCN(CCCc2ccc(O)cc2)CC1 [Example 35, 5-Hydroxy-2-methyl-N-[1-(3-(p-hydroxyphenyl)propyl)-4-piperidyl]indole-3-carboxamide] was tested, and the “ED30, dose required to increase max dP/dt by 30% of the effects of 0.1 μg isoproterenol” value [1] was 36 µg.
With C[C@@H]1O[C@@H](O[C@H]2C[C@@H](O)[C@]3(CO)[C@H]4[C@H](O)C[C@]5(C)[C@@H](C6=CC(=O)OC6)CC[C@]5(O)[C@@H]4CC[C@]3(O)C2)[C@H](O)[C@H](O)[C@H]1O [ouabain, reference compound] the “ED30, dose required to increase max dP/dt by 30% of the effects of 0.1 μg isoproterenol” value [1] was 60 µg.
With Cc1[nH]c2ccc(O)cc2c1C(=O)NC1CCN(CCCc2ccccc2)CC1 [Example 3, 5-hydroxy-2-methyl-N-[1-(3-phenylpropyl)-4-piperidyl]indole-3-carboxamide] the “ED30, dose required to increase max dP/dt by 30% of the effects of 0.1 μg isoproterenol” value [1] was 50 µg and the IC50 (5-lipoxygenase) was 180 nM.
Cc1[nH]c2ccc(O)cc2c1C(=O)NC1CCN(CCc2ccccc2)CC1 [Example 2, 5-hydroxy-2-methyl-N-[1-(2-phenylethyl)-4-piperidyl]indole-3-carboxamide] was tested, and the mortality (mice; oral 1000 mg/kg) was “All animals survived” and the IC50 (5-lipoxygenase) was 440 nM.
With O=C(NC1CCN(CCc2c[nH]c3ccccc23)CC1)c1ccccc1 [indoramin, 3-[2-(4-benzamido-1-piperidyl)ethyl]indole, reference compound] the mortality (mice; oral 500 mg/kg) was “all mice died” and the “changes on electroencephalograms (sedative activity)” value (central nervous system) was “trend toward slow wave”.

Source: US4581355A, “3-indolecarboxamides for control of circulatory diseases” (Yoshitomi Pharmaceutical Industries, Ltd., priority 1983, dated 1986)
